Data as given in US20030130200A1, “Small peptides and methods for treatment of asthma and inflammation” (Hisatek, LLC, priority 1997, published 2003).
Where no end group is shown, it is not given here. The star is where a group is joined. For = O=C*

Tested on: mast cells
Experiment: Rat skin model for inhibition of mast cell degranulation induced by Compound 48/80 (area of capillary permeability/bluing)
Assay type: in vivo, rat (male Sprague-Dawley)
From the text: The Rat Skin Model for Determination of Inhibition of Mast Cell Degranulation
Allergy induced asthma results from exposure of substances (allergens) to which an organism has become hypersensitized. Exposure to allergen results in degranulation of mast cells in the lung, releasing leukotrienes and histamines. […] Respiratory symptoms resulting from such an exposure range from mild (itching and sneezing) to potentially fatal (asthma), including in extreme chronic cases death by anaphylaxis.
In this model, the blood plasma of the experimental rat is labeled with the dye trypan blue. This soluble dye is carried in the bloodstream as a passive marker of plasma itself, and is excluded from live cells. Intact blood vessels including the capillary system, retain this dye under normal circumstances. A compound, which induces degranulation of mast cells (resulting in leukotriene and histamine release), is injected into the skin to simulate allergen-induced degranulation. In these experiments, Compound 48/80 was used for this purpose. In the events following leukotriene and histamine release, capillary permeability is increased, and plasma, dyed blue, leaks from capillaries and dyes the skin surrounding the injection site blue. The area of bluing is a measure of the amount of Compound 48/80 injected.
A compound can be tested for “anti-leukotriene” and/or “anti-histamine” activity by mixing it with Compound 48/80 prior to injection.
The rat skin model was undertaken and validated. Various peptides were tested at a predetermined dose for anti-leukotriene and/or anti-histamine activity. The dose selected allowed a general comparison to f-Met-Leu-Phe, which was standard compound for comparison.
A “dose response” titration was performed for some compounds and compared with the standard compound. Observing serial decreases in the size areas of capillary permeability using serially smaller doses of the putative inhibitory compound validates the inhibition of leukotriene and/or histamine release observed in the initial predetermined dose test.
Reagents were obtained from Sigma or Aldrich, with the exception of ketamine, a veterinary anaesthetic that was obtained from various veterinary suppliers. The rats used were male Sprague-Dawley breed, 220-240 g at time of purchase from B&K International.
For the rat skin reaction, rats were anaesthetized with 0.25 ml 10 mg/ml ketamine. 1.0 ml trypan blue in saline (sterile filtered) was administered in a tail vein, and the back of the rat was shaved. Four intradermal injection sites per rat were used for test and control injections.
Compound 48/80 was prepared as a 1.5 mg/ml stock solution in saline. […] Serial dilutions in saline to working levels were prepared just prior to injection of each rat.
Peptides were prepared as a 23 mM stock solution in DMSO, and stored at −20° C. between experiments. At the time of use, the frozen stock solutions were thawed, and appropriate aliquots added to dilutions of Compound 48/80, along with appropriate amounts of DMSO, to result in the ratio of 5 μl DMSO to 0.1 ml aqueous Compound 48/80.
For injections, 0.1 ml Compound […], +/− test compounds were injected intradermally into anaesthetized, dyed, and shaved rats. Following a 15 minute incubation, the rats were sacrificed by cervical dislocation and the back skin was evulsed and placed on a light box. An image of the backlit skin was digitized using a CCD video capture camera and compatible hardware/software. The digitized image was analyzed using a scientific graphics analysis software package, and the areas of capillary permeability (bluing) were integrated and digital values were obtained for further analysis.
A dose response curve was generated using Compound 48/80 at various doses from ca. 0.01 μg through ca 15 μg. […] A dose of 0.15 μg of Compound 48/80 was selected for conducting further tests.
A dose response curve was prepared for the standard compound, f-Met-Leu-Phe, using the selected dose of 0.15 μg Compound 48/80. […]

f-Met-Leu-Phe-Phe (For-MLFF) [Example 9]
Inhibition of degranulation induced by Compound 48/80, dose response curve (doses of 0 to about 230 nM peptide, 0.15 μg Compound 48/80 (FIG. 2, FIG. 3)): Surprisingly remarkable inhibition of degranulation induced by Compound 48/80 was clearly shown
% Degranulation (percent mast cell degranulation produced by 48/80, 100 nanomoles peptide, 0.15 μg Compound 48/80): 1-3%
